Data reported in PubChem BioAssay AID1919003 (Molecular Pharmacology Branch, DTP, NCI, 2023).
Values joined by “and” are separate entries in the source; they are usually repeats but may differ in a detail not shown here. Equal entries are not always repeated.

Tested on: 786-0 complex spheroids with HUVEC/MSC, growth % test/control
Experiment: Anticancer human tumor 786-0 cell line growth inhibition [AhR];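 note: compound exposure lasted seven days before the read-out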
Details: for viability, T/C: stronger effect = lower value
Description: Multicellular complex tumor spheroid response to aryl hydrocarbon receptor antagonists in combination with a variety of drugs and investigational agents in selected tumor cell lines
The current study was undertaken to assess response to aryl hydrocarbon receptor antagonists in combination with standard-of-care drugs and investigational agents in solid tumor complex spheroid models. Complex spheroids include a stromal component modeled by human endothelial cells (HUVEC) and fibroblasts modeled by human mesenchymal stem cells (MSCs). The concentration ranges selected for each drug and investigational agent were based upon clinically achievable concentrations if the clinical Cmax of the agent was known.
Compounds. The drugs and investigational agents: BAY 2416964 (NSC825713), GNF351 (NSC835774), CH-223191 (NSC835775), CPI-455 (NSC825282), aza-TdCyd (NSC777586), decitabine (NSC127716), belinostat (NSC758774), entinostat (NSC756642), pevonedistat (NSC761192), tazemetostat (NSC777109), talazoparib (NSC765396), olaparib (NSC753686), selinexor (NSC780203), nedisertib (M3814, NSC802822), bortezomib (NSC756655), venetoclax (NSC766270), doxorubicin (NSC123127), elimusertib (BAY189344, NSC800525), ceralasertib (AZD6738, NSC777638), TAK-243 (NSC785004), alisertib (NSC759677), etoposide (NSC141540), topotecan (NSC609699), eribulin (NSC707389), gemcitabine (NSC613327), carboplatin (NSC241240), cisplatin (NSC119875), and SN-38 (NSC673596) were obtained from the National Cancer Institute (NCI) Developmental Therapeutics Program Chemical Repository (32). The FDA-approved anticancer drug set is available from the Developmental Therapeutics Program at https://dtp.cancer.gov/organization/dscb/obtaining/available plates.htm. […] The stock solutions were prepared in dimethyl sulfoxide (DMSO, Sigma-Aldrich, St. Louis, MO, cat. D2650), except for the platinum compounds which were prepared in saline (Quality Biological, Gaithersburg, MD, cat. 114-055-101), at 800-fold the tested concentration and stored at -70 degrees C prior to their use. All drugs and investigational agents were tested over a range starting from a high concentration at or near the clinical Cmax and decreasing in half-log increments. If the clinical Cmax for an agent had not been determined, the highest concentration tested was 10 microM (Table 1).
Cell Culture. All cells were maintained in an incubator at 37 degrees C and 5% CO2 with 95% humidity. The PDC lines were cultured according to standard operating procedures established by the NCI PDMR (https://pdmr.cancer.gov). Briefly, all PDCs were thawed and cultured in Matrigel-coated flasks prepared with a working solution of 1X Ham's F-12 nutrient mix, without supplementation (Invitrogen, Waltham, MA, cat. 11765054), 100 U/mL penicillin-streptomycin (Invitrogen, cat. 15140122), and 2.5% Matrigel (Corning Inc., Corning, NY, cat. 354248) for the first three passages. All PDCs were cultured in complete DMEM/F-12 media containing advanced DMEM/F-12 (Invitrogen, cat. 12634028), 4.9% defined fetal bovine serum, heat inactivated (HyClone Laboratories Inc., Logan, UT, cat. SH30070.03HI), 389 ng/mL hydrocortisone (Sigma-Aldrich, cat. H4001), 9.7 ng/mL human EGF recombinant protein (Invitrogen, cat. PHG0313), 23.4 microg/mL adenine (Sigma-Aldrich, cat. A2786), 97.3 U/mL penicillin-streptomycin (Invitrogen, cat. 15140122), 1.9 mM L-glutamine (Invitrogen, cat. 25030081), and 9.7 microM Y-27632 dihydrochloride (Tocris Bioscience, Bristol, United Kingdom, cat. 1254). The PDCs were cultured in complete DMEM/F12 media without 10 microM Y-27632 dihydrochloride for at least two passages prior to the screen. The established cell lines NCI-H1341 and […] were cultured in DMEM/F-12, HEPES (Invitrogen, cat. 11330032), 5% defined fetal bovine serum (HyClone Laboratories Inc., cat. SH30070.03), ITS premix universal culture supplement [insulin (5 microg/mL), transferrin (5 microg/mL), and selenious acid (5 ng/mL)] […]

Row | SMILES | IC50 (curve of compound) | viability, T/C (compound 0.0316 µM) | viability, T/C (compound 0.1 µM) | viability, T/C (compound 0.316 µM) | viability, T/C (compound 1 µM) | viability, T/C (compound 3.16 µM) | viability, T/C (compound 10 µM) | also measured
1 | CC(C)CC(NC(=O)C(Cc1ccccc1)NC(=O)c1cnccn1)B(O)O (centres undefined) | 12.3 nM and 18.4 nM and 7.53 nM |  |  |  |  |  |  | viability, T/C (compound 0.000949 µM): 100% and 102% and 98.1%; viability, T/C (compound 0.003 µM): 105% and 104% and 116%; viability, T/C (compound 0.00949 µM): 63.4% and 99.9% and 35.7%; viability, T/C (compound 0.03 µM): 3.86% and 13.5% and 0.66%; viability, T/C (compound 0.0949 µM): 0.45% and 1.34% and 0.4%; viability, T/C (compound 0.3 µM): 1.25% and 0.84% and 0.27%
2 | CC(C)c1c(-c2ccccc2)nc2c(C#N)c[nH]n2c1=O | > 10000 nM | 101% and 108% and 93.8% | 106% and 99.9% and 109% | 101% and 103% and 108% | 105% and 101% and 100% | 97.5% and 110% and 105% | 99% and 98% and 97.1% | 
3 | CC(CO)NC(=O)c1cc(-c2ccc(Cl)cc2)nn(-c2cnn(C)c2)c1=O (centres undefined) |  |  | 100% [middle of 20 runs] |  |  |  |  | IC50 (compound alone, run of 08/08/2022): > 10000 nM
4 | CC1(C)CCC(CN2CCN(c3ccc(C(=O)NS(=O)(=O)c4ccc(NCC5CCOCC5)c([N+](=O)[O-])c4)c(Oc4cnc5[nH]ccc5c4)c3)CC2)=C(c2ccc(Cl)cc2)C1 | > 10000 nM | 99.3% and 109% and 105% | 97.5% and 98.3% and 98% | 102% and 108% and 99.2% | 107% and 108% and 102% | 101% and 97.3% and 81.5% | 61.2% and 77.3% and 77.1% | 
5 | CC1COCCN1c1cc(-c2ccnn2C)c2ccnc(-c3ccn[nH]3)c2n1 (centres undefined) | 123 nM and 209 nM and 118 nM | 101% and 104% and 88.6% | 56.4% and 92% and 57.7% | 16.5% and 26.5% and 11.5% | 4.64% and 9.13% and 3.92% |  |  | viability, T/C (compound 0.00316 µM): 104% and 102% and 103%; viability, T/C (compound 0.01 µM): 103% and 104% and 94.9%
6 | CC1COCCN1c1cc(C2(S(C)(=N)=O)CC2)nc(-c2ccnc3[nH]ccc23)n1 (centres undefined) | 4620 nM and 6580 nM and 2990 nM | 110% and 102% and 98.7% | 110% and 102% and 98.6% | 96.8% and 101% and 93.2% | 96.6% and 96.8% and 94% | 64.5% and 88.2% and 47.7% | 17.9% and 27.9% and 15.4% | 
7 | CCN(c1cc(-c2ccc(CN3CCOCC3)cc2)cc(C(=O)NCc2c(C)cc(C)[nH]c2=O)c1C)C1CCOCC1 | > 3000 nM |  |  |  |  |  |  | viability, T/C (compound 0.00949 µM): 100% (2×) and 106%; viability, T/C (compound 0.03 µM): 98.8% and 111% and 109%; viability, T/C (compound 0.0949 µM): 105% and 96.5% and 96.9%; viability, T/C (compound 0.3 µM): 110% and 109% and 112%; viability, T/C (compound 0.949 µM): 110% and 109% and 102%; viability, T/C (compound 3 µM): 117% and 104% and 107%
8 | CC[C@@]1(O)C(=O)OCc2c1cc1n(c2=O)Cc2cc3c(CN(C)C)c(O)ccc3nc2-1 | 44.7 nM and 53.3 nM and 57 nM | 64.5% and 73.7% and 85.6% | 16.4% and 21.4% and 16.1% |  |  |  |  | viability, T/C (compound 0.000316 µM): 105% and 100% and 103%; viability, T/C (compound 0.001 µM): 97.3% and 102% and 104%; viability, T/C (compound 0.00316 µM): 96.1% and 107% and 98%; viability, T/C (compound 0.01 µM): 97.8% and 106% and 109%
9 | CCc1c2c(nc3ccc(O)cc13)-c1cc3c(c(=O)n1C2)COC(=O)[C@]3(O)CC | 4.77 nM and 6.31 nM and 5.45 nM |  |  |  |  |  |  | viability, T/C (compound 0.000949 µM): 86.2% and 105% and 92.8%; viability, T/C (compound 0.003 µM): 71.8% and 98.8% and 87.3%; viability, T/C (compound 0.00949 µM): 17.6% and 23.2% and 15.3%; viability, T/C (compound 0.03 µM): 5.33% and 8.68% and 6.03%; viability, T/C (compound 0.0949 µM): 2.54% and 5.4% and 3.46%; viability, T/C (compound 0.3 µM): 2.09% and 4.14% and 2.23%
10 | COc1cc(C2c3cc4c(cc3C(OC3OC5COC(C)OC5C(O)C3O)C3COC(=O)C23)OCO4)cc(OC)c1O (centres undefined) | 951 nM and 572 nM and 989 nM | 101% and 104% and 103% | 100% and 95.1% and 109% | 75% and 74.2% and 81.8% | 46.5% and 25.8% and 49% | 26.6% and 22.7% and 27% | 5.89% and 5.81% and 13.3% | 
11 | COc1cc(Nc2ncc3c(n2)-c2ccc(Cl)cc2C(c2c(F)cccc2OC)=NC3)ccc1C(=O)O | 3170 nM and 5260 nM and 2870 nM | 94.7% and 108% and 91.5% | 96% and 110% and 93.9% | 98% and 122% and 107% | 78.9% and 92.7% and 79.7% | 50.9% and 63.2% and 48.5% | 27.6% and 35% and 28.7% | 
12 | COc1ccc([C@@H](O)c2cc(-c3ncnc4cc(N5CCOCC5)ccc34)c(F)cc2Cl)nn1 | > 10000 nM | 96.7% and 103% and 114% | 93.2% and 100% and 104% | 98.7% and 110% and 115% | 84.7% and 105% and 108% | 91.4% and 103% and 111% | 70.2% and 91.1% and 85.7% | 
